The results in this text go back to patent US20090182035A1, “USE OF A COMBINATION OF OLOPATADINE AND CILOMILAST TO TREAT NON-INFECTIOUS RHINITIS AND ALLERGIC CONJUNCTIVITIS” (Alcon Research, Ltd., priority 2007, published 2009).

The subject of assay [1] is eosinophil peroxidase (EPO) activity. The experiment in a line: Passive conjunctival anaphylaxis, eosinophil peroxidase (EPO) activity in conjunctivae (allergic inflammation). It is filed as in vivo, guinea pig. Particulars: 0.1% topical 20 μL drop 60 min prior to and 8 hours after challenge; for EPO Activity % Inhibition: conjunctivae 24 hours after challenge, versus vehicle only, * P < 0.05; for EPO Activity Mean: conjunctivae collected 24 hours after challenge. The procedure: (§1) Drugs were prepared in standard ophthalmic suspension vehicle and allowed to vortex overnight. Cilomilast and olopatadine were prepared in the same drop by preparing separate 0.2% formulations and then combining them 50:50 to yield a 0.1% concentration of each drug. In groups where cilomilast and olopatadine were given in consecutive drops, olopatadine was applied first followed 5 minutes later by cilomilast. All topical drops were administered as a single 20 μL application. Guinea pigs (male Hartley outbred, 250-300 g) were divided into groups of six. Animals were passively sensitized to ovalbumin by a single subconjunctival injection to the right eye of 10 μL of undiluted anti-ovalbumin guinea pig serum (antiserum). One group was injected with saline only. Twenty-four hours after sensitization all groups were topically challenged with 0.5 mg of ovalbumin in saline to the right eye. Animals were pre-treated with drug or vehicle 60 minutes prior to challenge. Thirty minutes after topical challenge each animal was scored by a masked observer for clinical signs of conjunctivitis, redness/congestion, swelling, and tearing/discharge, with a total score of 0 to 10. Animals were dosed a second time with drug or vehicle 8 hours after challenge. Animals were euthanized 24 hours after challenge and conjunctivae were collected and assayed for eosinophil peroxidase (EPO) activity, an indirect marker of tissue eosinophil concentration. Briefly, tissue samples were weighed frozen, then mechanically homogenized in 50 mM HEPES buffer, pH 6.5, containing 0.5% cetyltrimethylammonium chloride and 6 mM KBr. Homogenates were freeze-thawed three times and sonicated.

The test system of assay [2] is Guinea Pig Model of Passive Conjunctival Anaphylaxis. The experiment in a line: Passive conjunctival anaphylaxis, acute phase clinical score of conjunctivitis. It is filed as in vivo. Particulars: 0.1% topical 20 μL drop 60 min prior to ovalbumin challenge, scored 30 min after challenge; for Clinical Score Mean: total score 0 to 10, groups of six; for Clinical Score % Inhibition: versus vehicle only, * P < 0.05. The procedure:
as §1

On to `COc1ccc([C@]2(C#N)CC[C@@H](C(=O)O)CC2)cc1OC1CCCC1` [Cilomilast], for which, in assay [1], the “EPO Activity % Inhibition” value was 62.8* % and the “EPO Activity Mean” value is given as 582.26 ng EPO/mg tisue. In addition, in assay [2], the “Clinical Score Mean” value was 4.2 and the “Clinical Score % Inhibition” value is 37.5%.

On to `CN(C)CC/C=C1/c2ccccc2COc2ccc(CC(=O)O)cc21` [Olopatadine], for which, in assay [1], the “EPO Activity % Inhibition” value is reported as 15.8% and the “EPO Activity Mean” value stood at 1320.23 ng EPO/mg tisue. In addition, in assay [2], the “Clinical Score Mean” value amounted to 2.2 and the “Clinical Score % Inhibition” value is listed as 67.5* %.
